Data published in patent publication US20260138958A1, “SUBSTITUTED N-PHENYLURACILS AND SALTS THEREOF, AND USE THEREOF AS HERBICIDAL ACTIVE SUBSTANCES” (Bayer Aktiengesellschaft, priority 2022, published 2026).

Tests used:
Assay type in all cases: in vivo
Bassia scoparia (KCHSC) = assay: Post-emergence herbicidal action, greenhouse pot test
Summary of the method: (§1)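 Weeds grown in sandy loam in the greenhouse and sprayed post-emergence at the one-leaf stage, 2–3 weeks after sowing. Compound applied as WP or EC in water with 0.5% additive at 600 l/ha. Damage rated visually about 3 weeks later against untreated controls (0% = like control, 100% = dead).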

Viola tricolor (VIOTR) = assay: as above; conditions: for pest or weed control at 20 g/ha: Viola tricolor, 504 h, read-out: Post-emergence effect at 20 g/ha against VIOTR in %
Summary of the method: as §1

[1] = system: Tripleurospermum inodorum (MATIN); assay: as above; conditions: Tripleurospermum inodorum, 504 h, 20 g/ha, read-out: Post-emergence effect at 20 g/ha against MATIN in %
Summary of the method: as §1

Setaria viridis (SETVI) = assay: as above; conditions: for pest or weed control at 5 g/ha / pest or weed control at 20 g/ha: Setaria viridis, 504 h; for pest or weed control at 5 g/ha: read-out: Post-emergence effect at 5 g/ha against SETVI in %; for pest or weed control at 20 g/ha: read-out: Post-emergence effect at 20 g/ha against SETVI in %
Summary of the method: as §1

[2] = system: Echinochloa crus-galli (ECHCG); assay: as above; conditions: for pest or weed control at 20 g/ha: Echinochloa crus-galli, 504 h, read-out: Post-emergence effect at 20 g/ha against ECHCG in %
Summary of the method: as §1

Veronica persica (VERPE) = assay: as above; conditions: for pest or weed control at 5 g/ha / pest or weed control at 20 g/ha: Veronica persica, 504 h; for pest or weed control at 5 g/ha: read-out: Post-emergence effect at 5 g/ha against VERPE in %; for pest or weed control at 20 g/ha: read-out: Post-emergence effect at 20 g/ha against VERPE in %
Summary of the method: as §1

[3] = system: Polygonum convolvulus (POLCO); assay: as above; conditions: Fallopia convolvulus, 504 h; for pest or weed control at 5 g/ha: read-out: Post-emergence effect at 5 g/ha against POLCO in %; for pest or weed control at 20 g/ha: read-out: Post-emergence effect at 20 g/ha against POLCO in %
Summary of the method: as §1

[4] = system: Alopecurus myosuroides (ALOMY); assay: as above; conditions: for pest or weed control at 20 g/ha: Alopecurus myosuroides, 504 h, read-out: Post-emergence effect at 20 g/ha against ALOMY in %
Summary of the method: as §1

[5] = system: Abutilon theophrasti (ABUTH); assay: as above; conditions: for pest or weed control at 5 g/ha / pest or weed control at 20 g/ha: Abutilon theophrasti, 504 h; for pest or weed control at 5 g/ha: read-out: Post-emergence effect at 5 g/ha against ABUTH in %; for pest or weed control at 20 g/ha: read-out: Post-emergence effect at 20 g/ha against ABUTH in %
Summary of the method: as §1

[6] = system: Digitaria sanguinalis (DIGSA); assay: as above
Summary of the method: as §1

[7] = system: Pharbitis purpurea (PHBPU); assay: as above; conditions: for pest or weed control at 5 g/ha / pest or weed control at 20 g/ha: Ipomoea purpurea, 504 h; for pest or weed control at 5 g/ha: read-out: Post-emergence effect at 5 g/ha against PHBPU in %; for pest or weed control at 20 g/ha: read-out: Post-emergence effect at 20 g/ha against PHBPU in %
Summary of the method: as §1

[8] = system: Amaranthus retroflexus (AMARE); assay: as above; conditions: Amaranthus retroflexus, 504 h; for pest or weed control at 1.25 g/ha: read-out: Post-emergence effect at 1.25 g/ha against AMARE in %; for pest or weed control at 5 g/ha: read-out: Post-emergence effect at 5 g/ha against AMARE in %; for pest or weed control at 20 g/ha: read-out: Post-emergence effect at 20 g/ha against AMARE in %
Summary of the method: as §1

Zea mays (ZEAMX) = assay: Post-emergence crop plant compatibility, greenhouse pot test; conditions: Zea mays, in vivo
Summary of the method: (§2)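 Visual % damage scores were taken roughly 3 weeks after treatment, relative to untreated plants, where 100% means plants died and 0% means no difference. Plants received aqueous sprays (WP or EC, 0.5% additive, 600 l/ha) on green parts at the one-leaf stage, 2–3 weeks after sowing.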

[9] = system: Triticum aestivum (TRZAS); assay: as above; conditions: Triticum aestivum, in vivo
Summary of the method: as §2

harmful plants = assay: Post-emergence herbicidal action, summary statements over several weeds; conditions: 20 g or less per hectare, ALOMY, ECHCG, AVEFA, VERPE
Experimental: (§3) Seeds of monocotyledonous and dicotyledonous weeds and crop plants were placed in sandy loam in plastic or wood-fibre pots, covered with soil and cultivated in a greenhouse under controlled growth conditions. 2 to 3 weeks after sowing, the test plants were treated at the one-leaf stage. The compounds of the invention, formulated in the form of wettable powders (WP) or as emulsion concentrates (EC), were then sprayed onto the green parts of the plants as aqueous suspension or emulsion with addition of 0.5% additive at a water application rate of 600 l/ha (converted). After the test plants had been kept in the greenhouse under optimum growth conditions for about 3 weeks, the activity of the preparations was rated visually in comparison to untreated controls. For example, 100% activity=the plants have died, 0% activity=like control plants.

crop plants = assay: Post-emergence crop plant compatibility, summary statements over several crops; conditions: 5 g or less per hectare, ORYSA, ZEAMX, TRZAS
Experimental: as §3
The observed effects on selected crop plants are reported here in comparison to the untreated controls (values in %).

Oryza sativa (ORYSA) = assay: Post-emergence crop plant compatibility, greenhouse pot test; conditions: Oryza sativa, in vivo
Summary of the method: as §2

Glycine max (GLXMA) = assay: as above; conditions: Glycine max, in vivo
Summary of the method: as §2

| SMILES | pest or weed control at 20 g/ha (Viola tricolor (VIOTR)) [%] | pest or weed control at 20 g/ha [1] [%] | pest or weed control at 5 g/ha (Setaria viridis (SETVI)) [%] | pest or weed control at 20 g/ha (Setaria viridis (SETVI)) [%] | pest or weed control at 20 g/ha [2] [%] | pest or weed control at 5 g/ha (Veronica persica (VERPE)) [%] | pest or weed control at 20 g/ha (Veronica persica (VERPE)) [%] | pest or weed control at 5 g/ha [3] [%] | pest or weed control at 20 g/ha [3] [%] | pest or weed control at 20 g/ha [4] [%] | pest or weed control at 5 g/ha [5] [%] | pest or weed control at 20 g/ha [5] [%] | pest or weed control at 5 g/ha [7] [%] | pest or weed control at 20 g/ha [7] [%] | pest or weed control at 1.25 g/ha [8] [%] | pest or weed control at 5 g/ha [8] [%] | pest or weed control at 20 g/ha [8] [%] | Post-emergence effect at 1.25 g/ha against ZEAMX in % (Zea mays (ZEAMX)) [%] | Post-emergence effect at 1.25 g/ha against TRZAS in % [9] [%] | Post-emergence effect at 20 g/ha against TRZAS in % [9] [%] | further results |
| --- | --- | --- | --- | --- | --- | --- | --- | --- | --- | --- | --- | --- | --- | --- | --- | --- | --- | --- | --- | --- | --- |
| Cn1c(C(F)(F)F)cc(=O)n(-c2cc(Oc3ccccc3OCC(=O)OCC3CCCCCC3)c(Cl)cc2F)c1=O [I.7-16] | 100 | 90 | 100 | 100 | 100 | 100 | 100 | 100 | 100 | 100 | 100 | 100 | 100 | 100 | 100 | 100 | 100 | 20 | 10 | 20 | Post-emergence effect at 1.25 g/ha against KCHSC in % (Bassia scoparia (KCHSC); 1.25 g/ha): 100%; Post-emergence effect at 5 g/ha against KCHSC in % (Bassia scoparia (KCHSC); 5 g/ha): 100%; Post-emergence effect at 20 g/ha against KCHSC in % (Bassia scoparia (KCHSC); 20 g/ha): 100%; Post-emergence effect at 1.25 g/ha against VIOTR in % (Viola tricolor (VIOTR); 1.25 g/ha): 100%; Post-emergence effect at 5 g/ha against VIOTR in % (Viola tricolor (VIOTR); 5 g/ha): 100%; Post-emergence effect at 1.25 g/ha against SETVI in % (Setaria viridis (SETVI); 1.25 g/ha): 100%; Post-emergence effect at 1.25 g/ha against ECHCG in % ([2]; 1.25 g/ha): 100%; Post-emergence effect at 5 g/ha against ECHCG in % ([2]; 5 g/ha): 100%; ECHCG (efficacy in %) ([2]; Table B5 comparison, application rate 1.25 g/ha): 100%; Post-emergence effect at 1.25 g/ha against VERPE in % (Veronica persica (VERPE); 1.25 g/ha): 80%; Post-emergence effect at 5 g/ha against ALOMY in % ([4]; 5 g/ha): 90%; Post-emergence effect at 1.25 g/ha against ABUTH in % ([5]; 1.25 g/ha): 80%; Post-emergence effect at 1.25 g/ha against DIGSA in % ([6]; 1.25 g/ha): 90%; Post-emergence effect at 5 g/ha against DIGSA in % ([6]; 5 g/ha): 100%; Post-emergence effect at 20 g/ha against DIGSA in % ([6]; 20 g/ha): 100%; Post-emergence effect at 1.25 g/ha against PHBPU in % ([7]; 1.25 g/ha): 80%; herbicidal efficacy by comparison with a-27, a-29 or a generically encompassed structure (WO2002/098227) (harmful plants): distinctly improved herbicidal efficacy; compatibility with crop plants by comparison with a-27, a-29 or a generically encompassed structure (WO2002/098227) (crop plants): distinctly improved compatibility |
| Cn1c(C(F)(F)F)cc(=O)n(-c2cc(Oc3ccccc3OCC(=O)OCC3CC3)c(Br)cc2F)c1=O [I.8-1, Cyclopropylmethyl (2-{2-bromo-4-fluoro-5-[3-methyl-2,6-dioxo-4-(trifluoromethyl)-3,6-dihydropyrimidin-1(2H)-yl]phenoxy}phenoxy)acetate] | 100 | 100 | 100 | 100 | 100 | 100 | 100 | 100 | 100 | 100 | 100 | 100 | 80 | 100 | 100 | 100 | 100 | 0 | 0 | 0 | Post-emergence effect at 1.25 g/ha against ORYSA in % (Oryza sativa (ORYSA)): 0%; Post-emergence effect at 5 g/ha against ORYSA in % (Oryza sativa (ORYSA)): 0%; Post-emergence effect at 20 g/ha against ORYSA in % (Oryza sativa (ORYSA)): 20%; Post-emergence effect at 1.25 g/ha against GLXMA in % (Glycine max (GLXMA)): 0% |
